The values below come from patent publication EP1873155A1, “Inhibitors of the HIV integrase enzyme” (PFIZER INC., priority 2004, dated 2005).

The target of the assay is HIV-1 integrase. Put plainly: Integrase strand-transfer scintillation proximity assay. The note with it: full-length wild type HIV-1 integrase (SF1), 50 min at 37°C. The assay is classed as biochemical. The procedure: The annealed product represents preprocessed viral ds-DNA derived from the LTR U5 sequence of the viral genome.
The radiolabeled product was purified using a NENSORB cartridge and stored in stabilized aqueous solution (PerkinElmer).
White, polystyrene, flat-bottom, non-binding surface, 96-well plates were purchased from Corning.
Supernant was discarded and pellet resuspended in 50 mM HEPES pH 7.0, 750 mM NaCl, 5 mM DTT, 1 mM AEBSF and homogenized in a 40 mL Dounce homogenizer for 20 minutes on ice. […] Supernant was discarded and pellet resuspended in 50 mM HEPES pH 7.0, 750 mM NaCl, 25 mM CHAPS, 5 mM DTT, 1 mM AEBSF.
Supernant was then diluted 1:1 with 50 mM HEPES pH 7.0, 25 mM CHAPS, 1 mM DTT, 1 mM AEBSF and loaded onto a Q-Sepharose column pre-equilibrated with 50 mM HEPES, pH 7.0, 375 mM NaCl, 25 mM CHAPS, 1 mM DTT, 1 mM AEBSF. The flow through peak was collected and NaCl diluted to 0.1 M with 50 mM HEPES pH 7.0, 25 mM CHAPS, 1 mM DTT, 0.5 mM AEBSF and loaded onto a SP-Sepharose column pre-equilibrated with 50 mM HEPES pH 7.0, 100 mM NaCl, 25 mM CHAPS, 1 mM DTT, 0.5 mM AEBSF. After washing the column with the equilibration buffer, a 100 to 400 mM NaCl gradient was run. The eluted integrase was concentrated and run on a S-300 gel diffusion column using 50 mM HEPES pH 7.0, 500 mM NaCl, 25 mM CHAPS, 1 mM DTT, 0.5 mM AEBSF. […]
(In general: In a scintillation proximity assay essentially only radioactivity close to the scintillant gives light.)

Broadly, the IC50 is the concentration that inhibits the measured activity by half. Read a high IC50 as lower potency. Turning to “1-[({[(4R)-2,2-dimethyl-1,3-dioxolan-4-yl]methyl}amino)meth yl]-3-(4-fluorobenzyl)-7-hydroxy-3,7-dihydro-6H-pyrrolo[2,3-c]-1,7-naphthyridin-6-one [Example 35]”, the 50% inhibitory concentration (IC50) is 45 nM. Under “(3R)-1-{[3-(4-fluorobenzyl)-7-hydroxy-6-oxo-6,7-dihydro-3H-pyrrolo[2,3-c]-1,7-naphthyridin-1-yl]methyl)-N,N-dimethylpyrrolidine-3-carboxamide [Example 17]” stands 9 nM.
